Data as given in PMC7920489 (Pharmaceuticals, 2021).
Where two headings read alike, the source gives them in different places.

Key:
in vivo = conditions: nude, mouse, ip, 50 mg/kg
[1] = nude, mouse, in vivo, ip, 50 mg/kg

Compound: COc1cccc(-c2cc(=O)c3ccccc3o2)c1NC(=O)C(C)(C)c1cc(C(=O)Nc2ccc(N(CCCl)CCCl)cc2)ccc1N [AL530]
- tmax (in vivo): 2 h
- tmax [1]: 2.5 h
